Experimental data: patent publication US8039514B2, “Sulfonamide compounds and use thereof” (Asahi Kasei Pharma Corporation, priority 2008, dated 2011)

What follows are molecules tested against T1, human calcium-sensing receptor (CaSR) (Homo sapiens, UniProt P41180) (assay: intracellular Ca assay, CaSR antagonist activity in HEK293/hCaSR cells). Conditions: Fura2-AM, inhibition of response to calcium chloride ligand solution, read-out: IC50 values according to the intracellular Ca assay (CaSR antagonist activity).
T1 construct: expressed in transfected cells
T1 sequence (P41180 20-1078): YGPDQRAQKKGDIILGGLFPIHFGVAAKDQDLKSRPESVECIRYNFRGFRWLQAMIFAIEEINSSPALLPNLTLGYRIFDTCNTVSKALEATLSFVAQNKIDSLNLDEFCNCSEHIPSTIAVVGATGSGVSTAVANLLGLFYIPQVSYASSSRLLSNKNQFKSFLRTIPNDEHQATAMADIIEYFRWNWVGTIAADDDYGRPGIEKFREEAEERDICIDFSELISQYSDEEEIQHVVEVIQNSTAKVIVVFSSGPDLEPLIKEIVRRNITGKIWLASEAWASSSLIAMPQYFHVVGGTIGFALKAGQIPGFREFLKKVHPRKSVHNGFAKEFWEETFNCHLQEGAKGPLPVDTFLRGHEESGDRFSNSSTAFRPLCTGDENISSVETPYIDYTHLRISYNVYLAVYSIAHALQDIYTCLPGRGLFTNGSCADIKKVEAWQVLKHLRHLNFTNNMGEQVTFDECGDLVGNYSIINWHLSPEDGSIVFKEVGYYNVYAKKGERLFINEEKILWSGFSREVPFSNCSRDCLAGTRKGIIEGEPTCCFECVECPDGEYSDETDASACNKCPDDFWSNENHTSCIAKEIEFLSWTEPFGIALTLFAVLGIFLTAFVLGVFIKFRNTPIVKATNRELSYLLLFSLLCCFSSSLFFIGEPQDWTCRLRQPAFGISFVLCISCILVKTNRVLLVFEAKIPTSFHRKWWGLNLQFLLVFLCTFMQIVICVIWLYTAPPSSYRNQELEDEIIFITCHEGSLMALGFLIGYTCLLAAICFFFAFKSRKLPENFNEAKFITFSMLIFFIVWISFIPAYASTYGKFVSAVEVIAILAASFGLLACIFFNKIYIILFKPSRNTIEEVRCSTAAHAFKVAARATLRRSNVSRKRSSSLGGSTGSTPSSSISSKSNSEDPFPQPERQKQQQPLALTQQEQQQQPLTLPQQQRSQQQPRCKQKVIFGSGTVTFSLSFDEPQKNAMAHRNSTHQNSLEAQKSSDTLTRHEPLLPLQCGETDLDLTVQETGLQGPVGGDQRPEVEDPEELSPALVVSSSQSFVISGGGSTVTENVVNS
Assay type: cell-based
Method: HEK293 cells stably expressing human calcium-sensing receptor (CaSR) (termed HEK293/hCaSR cells) were used. HEK293/hCaSR cells were cultured in a culture medium [DMEM medium containing 0.5 mg/mL Geneticin, 50 Unit/mL penicillin, 50 μg/mL streptomycin and 10% fetal bovine serum (FBS), all manufactured by Invitrogen] to semiconfluent in an incubator at 37° C. under 5% carbon dioxide atmosphere.
Cultured cells were washed with phosphate buffered saline (PBS(−), manufactured by Dainippon Sumitomo Pharmaceutical Company) which had been prewarmed to 37° C., added with PBS(−) containing 10 mM ethylenediamine tetraacetic acid (EDTA), and then incubated in an incubator at 37° C. for 10 minutes. After adding the culture medium to separate the cells, cell suspension was transferred to a centrifuge tube. Cells were collected by centrifuge at 1,500 rpm for 3 minutes, and resuspended in Ca assay buffer [20 mM HEPES buffer (pH 7.4), 115 mM sodium chloride, 5.4 mM potassium chloride, 0.8 mM magnesium chloride, 0.8 mM calcium chloride, 13.8 mM D(+)-glucose (all manufactured by Wako Pure Chemicals) and 0.1% bovine serum albumin (manufactured by SIGMA)] containing 0.2% Pluronic F-127 (manufactured by Molecular Probes) and […] Fura2-AM (manufactured by DOJINDO LABORATORIES) to obtain a cell suspension of 5×10^6 cells/mL. After incubating at 37° C. for 30 minutes, the cells were washed twice with the Ca assay buffer and suspended in the same buffer to obtain a cell suspension of 1×10^6 cells/60 μL. 60 μL of the cell suspension was aliquoted to each well of a 96 well UV microplate (manufactured by Corning Co.) to give a cell plate.
The test compound was diluted with the Ca assay buffer to five times the final concentration and then 80 μL of the diluted compound was applied to each well of a 96 well round bottomed microplate (manufactured by Corning Co.) to give a sample plate. 80 μL of the Ca assay buffer containing 7.5 mM calcium chloride (i.e., ligand solution) was applied to each well of a 96 well round bottomed microplate to give a ligand plate. Then, thus prepared sample plate, ligand plate, and the cell plate were placed in Functional Drug Screening System (FDSS) 4000 (manufactured by Hamamatsu Photonics K.K.) which had been preswitched on and prewarmed to 37° C. Measurements were then carried out as follows. After incubating the cell plate for 180 seconds, fluorescence intensity was measured every two seconds (excitation wavelength; 340 nm and 380 nm, measurement wavelength; 500 nm). After the measurement for 40 seconds, 20 μL of the test compound solution from the sample plate was added to the cell plate, followed by continuous measurement for 160 seconds. Then, 20 μL of the ligand solution from the ligand plate was added to the cell plate, followed by continuous measurement for 100 seconds.
Amount of change in intracellular Ca concentration is indicated as a peak height of the ratio of the fluorescence intensity with excitation of 340 nm and 380 nm (i.e., fluorescence intensity with excitation at 340 nm/fluorescence intensity with excitation at 380 nm) that is obtained from the difference between the maximum ratio after adding the ligand solution and the ratio before adding the ligand solution. Further, when the peak height obtained from the Ca assay buffer containing no test compound has inhibition ratio of 0% while the peak height obtained from the Ca assay buffer containing no calcium chloride as a ligand solution has inhibition ratio of 100%, inhibition ratio for each test compound (i.e., CaSR antagonist activity) was calculated.

SMILES	IC50 [nM]
CN(C[C@H](O)CNC(C)(C)Cc1ccc2ccccc2c1)S(=O)(=O)Cc1ccccc1-c1cccc(C=CC(=O)O)c1 [Exp. 3-84, (R)-3-(2′-((N-(2-hydroxy-3-(2-methyl-1-(naphthalen-2-yl)propan-2-ylamino)propyl)-N-methylsulfamoyl)methyl)biphenyl-3-yl)acrylic acid]	1000 to 3000
CN(C[C@H](O)CNC(C)(C)Cc1ccc2ccccc2c1)S(=O)(=O)c1cccc(-c2ccc(C(=O)O)cc2[N+](=O)[O-])c1 [Exp. 3-20, (R)-3′-(N-(2-hydroxy-3-(2-methyl-1-(naphthalen-2-yl)propan-2-ylamino)propyl)-N-methylsulfamoyl)-2-nitrobiphenyl-4-carboxylic acid]	1000 to 3000
CN(C[C@H](O)CNC(C)(C)CC1Cc2ccccc2C1)S(=O)(=O)c1cccc(-c2ccc(OCC(=O)O)c(Cl)c2)c1 [Exp. 3-223, (R)-2-(3-chloro-3′-(N-(3-(1-(2,3-dihydro-1H-inden-2-yl)-2-methylpropan-2-ylamino)-2-hydroxypropyl)-N-methylsulfamoyl)biphenyl-4-yloxy)acetic acid]	≤ 300
Cc1cc(-c2cccc(S(=O)(=O)N(C)C[C@H](O)CNC(C)(C)Cc3ccc4ccccc4c3)c2)ccc1C(=O)O [Exp. 3-8, (R)-3′-(N-(2-hydroxy-3-(2-methyl-1-(naphthalen-2-yl)propan-2-ylamino)propyl)-N-methylsulfamoyl)-3-methylbiphenyl-4-carboxylic acid]	≤ 300
CCc1cc(-c2ccc(CCC(=O)O)cc2Cl)ccc1S(=O)(=O)N(C)C[C@H](O)CNC(C)(C)CC1Cc2ccccc2C1 [Exp. 5-16, (R)-3-(2-chloro-4′-(N-(3-(1-(2,3-dihydro-1H-inden-2-yl)-2-methylpropan-2-ylamino)-2-hydroxypropyl)-N-methylsulfamoyl)-3′-ethylbiphenyl-4-yl)propionic acid]	≤ 300
Cc1ccc(CC(C)(C)NC[C@@H](O)CN(C)S(=O)(=O)c2cccc(-c3ccc(C(=O)O)cc3F)c2)cc1F [Exp. 3-67, (R)-2-fluoro-3′-(N-(3-(1-(3-fluoro-4-methylphenyl)-2-methylpropan-2-ylamino)-2-hydroxypropyl)-N-methylsulfamoyl)biphenyl-4-carboxylic acid]	300 to 1000
CN(C[C@H](O)CNC(C)(C)Cc1ccc2ccccc2c1)S(=O)(=O)c1cccc(-c2ccc(C(=O)O)c(N)c2)c1 [Exp. 3-10, (R)-3-amino-3′-(N-(2-hydroxy-3-(2-methyl-1-(naphthalen-2-yl)propan-2-ylamino)propyl)-N-methylsulfamoyl)biphenyl-4-carboxylic acid]	≤ 300
Cc1ccc(CC(C)(C)NC[C@@H](O)CN(C)S(=O)(=O)c2cccc(-c3cc(F)cc(C(=O)O)c3)c2)cc1F [Exp. 3-71, (R)-5-fluoro-3′-(N-(3-(1-(3-fluoro-4-methylphenyl)-2-methylpropan-2-ylamino)-2-hydroxypropyl)-N-methylsulfamoyl)biphenyl-3-carboxylic acid]	1000 to 3000
CN(C[C@H](O)CNC(C)(C)CCCc1ccccc1)S(=O)(=O)c1cc(NCC(=O)O)cc(C(F)(F)F)c1 [Exp. 9-180, (R)-2-(3-(N-(2-hydroxy-3-(2-methyl-5-phenylpentan-2-ylamino)propyl)-N-methylsulfamoyl)-5-(trifluoromethyl)phenylamino)acetic acid]	≤ 300
CN(C[C@H](O)CNC(C)(C)Cc1ccc2ccccc2c1)S(=O)(=O)c1ccc(-c2cccc(C(=O)O)c2)cc1 [Exp. 3-30, (R)-4′-(N-(2-hydroxy-3-(2-methyl-1-(naphthalen-2-yl)propan-2-ylamino)propyl)-N-methylsulfamoyl)biphenyl-3-carboxylic acid]	≤ 300
CN(C[C@H](O)CNC(C)(C)CCCc1ccccc1)S(=O)(=O)c1cc(-c2cccc(CCC(=O)O)c2)cc(C(F)(F)F)c1 [Exp. 9-55, (R)-3-(3′-(N-(2-hydroxy-3-(2-methyl-5-phenylpentan-2-ylamino)propyl)-N-methylsulfamoyl)-5′-(trifluoromethyl)biphenyl-3-yl)propionic acid]	≤ 300
CN(C[C@H](O)CNC(C)(C)CC1Cc2ccccc2C1)S(=O)(=O)c1cccc(-c2c(Cl)cc(C(=O)O)cc2Cl)c1 [Exp. 3-228, (R)-2,6-dichloro-3′-(N-(3-(1-(2,3-dihydro-1H-inden-2-yl)-2-methylpropan-2-ylamino)-2-hydroxypropyl)-N-methylsulfamoyl)biphenyl-4-carboxylic acid]	≤ 300
CN(C[C@H](O)CNC(C)(C)CC1Cc2ccccc2C1)S(=O)(=O)c1cc(-c2cc(F)cc(C(=O)O)c2)cc(C(F)(F)F)c1 [Exp. 3-128, (R)-3′-(N-(3-(1-(2,3-dihydro-1H-inden-2-yl)-2-methylpropan-2-ylamino)-2-hydroxypropyl)-N-methylsulfamoyl)-5-fluoro-5′-(trifluoromethyl)biphenyl-3-carboxylic acid]	≤ 300
COCc1cc(-c2cccc(S(=O)(=O)N(C)C[C@H](O)CNC(C)(C)Cc3ccc4ccccc4c3)c2)ccc1C(=O)O [Exp. 3-22, (R)-3′-(N-(2-hydroxy-3-(2-methyl-1-(naphthalen-2-yl)propan-2-ylamino)propyl)-N-methylsulfamoyl)-3-(methoxymethyl)biphenyl-4-carboxylic acid]	300 to 1000
CN(C[C@H](O)CNC(C)(C)CC1Cc2ccccc2C1)S(=O)(=O)c1ccc(-c2ccc(F)c(CCC(=O)O)c2)cc1C(F)(F)F [Exp. 5-62, (R)-3-(4′-(N-(3-(1-(2,3-dihydro-1H-inden-2-yl)-2-methylpropan-2-ylamino)-2-hydroxypropyl)-N-methylsulfamoyl)-4-fluoro-3′-(trifluoromethyl)biphenyl-3-yl)propionic acid]	≤ 300
CN(C[C@H](O)CNC(C)(C)CC1Cc2ccccc2C1)S(=O)(=O)c1cc(F)c(-c2cccc(CCC(=O)O)c2)cc1F [Exp. 3-180, (R)-3-(4′-(N-(3-(1-(2,3-dihydro-1H-inden-2-yl)-2-methylpropan-2-ylamino)-2-hydroxypropyl)-N-methylsulfamoyl)-2′,5′-difluorobiphenyl-3-yl)propionic acid]	≤ 300
